Data: article PMC4002121, “Trimethylation of Histone H3 Lysine 36 by Human Methyltransferase PRDM9 Protein” (The Journal of Biological Chemistry, 2014)
“Also recorded” adds a separate entry of the source. Values belong to the compound of their own block, whether it stands above or below them.

Tests used:
PRDM9 [1] = molecular target: T1, PRDM9 (Homo sapiens, UniProt Q9NQV7); test: Assay optimization: effect of pH, salt and additives on PRDM9 activity; format: biochemical
T1 construct: The wild-type PRDM9 gene (amino acids 195–385) was amplified by PCR; His tag (cleaved yes); made in house; host or cells: E. coli BL21(DE3)pRARE2-V2R
T1 sequence (Q9NQV7 195-385): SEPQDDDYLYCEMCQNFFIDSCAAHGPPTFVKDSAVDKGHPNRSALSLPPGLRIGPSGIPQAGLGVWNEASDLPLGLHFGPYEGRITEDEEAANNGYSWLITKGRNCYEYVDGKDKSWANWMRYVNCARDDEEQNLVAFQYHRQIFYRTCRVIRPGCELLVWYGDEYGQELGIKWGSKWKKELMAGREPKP
Protocol: Samples were incubated for 1 h at 23 °C and reactions were quenched by addition of 20 μl of 7.5 M guanidinium hydrochloride followed by addition of 160 μl of 20 mM Tris-HCl buffer, pH 8.0. Samples were added to wells of a streptavidin/scintillant-coated microplate (FlashPlate® PLUS: PerkinElmer Life Sciences).
FIGURE 3.

PRDM9 [2] = molecular target: T1, PRDM9; test: PRDM9 substrate specificity, radioactivity-based histone peptide methylation assay; format: biochemical; conditions: 10 μM biotinylated peptide, 200 μM AdoMet, 1 nM PRDM9, 10 mM Tris-HCl pH 8.5, 0.01% Triton X-100, 10 mM DTT, 30 min, 23 °C; n = 4
Protocol: In this assay [^3H]AdoMet (PerkinElmer Life Sciences; catalog number NET155V250UC) was used as a methyl donor to methylate biotinylated histone peptide substrates. […] Samples were incubated for 30 min at 23 °C and the reaction was quenched by addition of 20 μl of 7.5 M guanidinium hydrochloride followed by addition of 160 μl of 20 mM Tris-HCl buffer, pH 8.0. Samples were added to wells of a streptavidin/scintillant-coated microplate (FlashPlate® PLUS; PerkinElmer Life Sciences). Biotinylated peptides would be captured in each well through their interaction with streptavidin, thereby bringing any incorporated [^3H]methyl in proximity of scintillant.
FIGURE 1. […] Data are presented as mean ± S.D. from four experiments.

PRDM9 [3] = molecular target: T1, PRDM9; test: Screening PRDM9 against known histone methyltransferase inhibitor library; format: biochemical; conditions: 2.5 μM H3K36me2 peptide, 62 μM AdoMet, 1 nM PRDM9, 10 mM Tris-HCl pH 8.5, 10 mM DTT, 0.01% Triton X-100, 1% DMSO, 30 min, 23 °C; triplicate
Protocol: The Z-factor was determined to ensure the optimized assay was amenable to high-throughput screening in a 384-well format ([46]). […] PRDM9 was then screened against a small library of known histone methyltransferase inhibitors using H3K36me2 as substrate under optimized assay conditions. In this assay, 1 nM PRDM9 was incubated with 2.5 μM H3K36me2 peptide, 62 μM AdoMet in a reaction buffer (10 mM Tris-HCl, pH 8.5, 10 mM DTT, 0.01% Triton X-100) along with compounds ranging in concentrations from 0 to 100 μM, with a final DMSO concentration of 1%. Reactions were incubated at 23 °C for 30 min. The IC50 value was determined for suramin using SigmaPlot.
FIGURE 5. […] Experiments were performed in triplicate as described under “Experimental Procedures.”

HEK293 cells = test: H3K4 and H3K36 methylation in HEK293 cells overexpressing PRDM9, immunoblotting; format: cell-based, human; conditions: normalized to total H3
Protocol: A FLAG-tagged control vector or FLAG-tagged PRDM9 construct were transfected into HEK293 cells using GeneJuice (Novagen). Transfected cells were serum-deprived prior to lysis in 50 mM Tris-HCl, 400 mM NaCl, 1 mM EDTA, 0.1% SDS, and 1% Triton X-100 supplemented with protease inhibitors. 30 μg of total cell lysate were processed for Western blotting and immunoblotted using specific antibodies to monitor the levels of H3K36me1 (Abcam, ab9048), H3K36me2 (Cell signaling Technology, 2901), H3K36me3 (Cell Signaling Technology, number 9763), H3K4me1 (Cell Signaling Technology, 9723), H3K4me2 (Abcam, ab32356), H3K4me3 (Cell Signaling Technology, number 9727S), and total H3 (Abcam, ab10799). The transfection efficiency of FLAG-PRDM9 was controlled by using an anti-FLAG antibody (FLAG M2 monoclonal, Sigma). Membrane bands were visualized using LiCor IRDye, 680RD anti-rabbit and 800CW anti-mouse secondary antibodies.
FIGURE 8. Trimethylation of H3K4 and H3K36 by PRDM9 in cells. […] Methylation levels of Lys-4 and Lys-36 were quantified and normalized to their respective total H3 levels. FLAG-PRDM9-transfected samples were normalized to samples transfected with FLAG Control vector. IB, immunoblot; CTL, control.

sterile mouse hybrids = conditions: via baculovirus; cited from earlier work
From the text: PRDM9 is a PR domain-containing protein with multiple zinc fingers that catalyze trimethylation of H3K4 ([28]). It is a meiosis-specific protein that has been reported to control activation of the short highly recombinogenic segments called recombination hot spots ([50]). The H3K4me3 mark is often associated with transcriptional activation ([51], [52]) and DNA repair ([53]). This methyl mark is also associated with recombination hot spot initiation in yeast and mice ([35], [36]) where double strand breaks occur prior to crossover events. However, H3K4me3 marks associated with hot spots are dis ...

PRDM9 [4] = conditions: cited from earlier work
From the text: Although PRDM9 H3K4 methyltransferase activity has been previously reported ([28]), to our knowledge its activity and substrate specificity have not been fully characterized. […] Our binding data also indicated tight H3K4 peptide binding (low micromolar). Previously, Hayashi et al. ([28]) reported that GST-PRDM9 specifically catalyzed met ...

PRDM9 [5] = molecular target: T1, PRDM9; test: Isothermal titration calorimetry (ITC) binding to PRDM9; conditions: AdoMet 1 mM injected into 50 μM PRDM9, 25 °C, 20 mM Tris-HCl pH 8.5, one-binding site model
Protocol: Purified PRMD9 was dialyzed overnight in 20 mM Tris-HCl buffer, pH 8.5. […] ITC titrations were performed on a VP-ITC Micro Calorimeter from GE Healthcare at 25 °C by using 10-μl injections with a total of 25 injections. Data were fitted with a one-binding site model using Microcal Origin software.
FIGURE 7. […] Experiments were performed in duplicate.

[6] = H3-(1–25) substrate 10 μM, 40 μM AdoMet, 100 nM PRDM9, 10 mM Tris-HCl pH 8.5, 1 h, 23 °C, n = 4
[7] = H3-(1–25) substrate, 10 mM Tris-HCl pH 8.5

Compound: O=C(O)CCP(CCC(=O)O)CCC(=O)O [TCEP, Tris(2-carboxyethyl)phosphine]
- effect on PRDM9 activity (in words) (PRDM9 [1]; [6]): sharp decrease in activity at increasing TCEP concentrations
- concentration of maximal PRDM9 activity (reducing agent) (PRDM9 [1]; [7]): 0.6 mM

Compound: H3K36A: H3-(21–44) peptide with Lys-36 mutated to alanine
- PRDM9 methyltransferase activity with substrate (in words) (PRDM9 [2]): not when Lys-36 was trimethylated or mutated to alanine

Compound: PRDM9: PR domain-containing protein 9, histone methyltransferase; FLAG-tagged in cells, residues 195–385 in vitro
- mono- or dimethylation of H3K4 and H3K36 in cells (in words) (HEK293 cells; HEK293 cells overexpressing PRDM9): not mono- or dimethylation of either mark
- trimethylation of H3K4 and H3K36 in cells (in words) (HEK293 cells; HEK293 cells transfected with FLAG-PRDM9 vs FLAG control vector): significant increase in trimethylation of H3K4 and H3K36; also recorded: significant increase in H3K36 trimethylation as well as H3K4 trimethylation
- effect on sterile phenotype of mouse hybrids (in words) (sterile mouse hybrids): rescued the sterile phenotype

Compound: H3-(26–45): histone H3-(26–45) peptide on a peptide array
- binding of PRDM9 to peptide on a peptide array (in words) (PRDM9 [4]): Binding

Compound: [Cl-].[Na+] [NaCl]
- NaCl concentration above which enzyme activity was abolished (PRDM9 [1]; [6]): above 125 mM
- effect on PRDM9 activity (in words) (PRDM9 [1]; [6]): sharp decrease in activity with increasing NaCl concentrations

The next lines start with results.

- IC50 (PRDM9 [3]): 4.1 ± 0.1 µM
Compound: Cc1ccc(C(=O)Nc2ccc(S(=O)(=O)O)c3cc(S(=O)(=O)O)cc(S(=O)(=O)O)c23)cc1NC(=O)c1cccc(NC(=O)Nc2cccc(C(=O)Nc3cc(C(=O)Nc4ccc(S(=O)(=O)O)c5cc(S(=O)(=O)O)cc(S(=O)(=O)O)c45)ccc3C)c2)c1 [suramin]

- DMSO concentration of maximum PRDM9 activity (PRDM9 [1]; [7]): 0.16%
Compound: C[S+](C)[O-] [DMSO, dimethyl sulfoxide]
- effect on PRDM9 activity (in words) (PRDM9 [1]; [6]): maintained high levels of activity at all concentrations of DMSO

- Triton X-100 concentration that dramatically improved signal to noise ratio (PRDM9 [1]; concentrations as low as, H3-(1–25) substrate, 10 mM Tris-HCl pH 8.5): ≥ 0.004%
Compound: Triton X-100
- effect on PRDM9 activity (in words) (PRDM9 [1]; [6]): Higher concentrations of Triton X-100 up to 0.25% did not further increase the activity

- PRDM9 methyltransferase activity with substrate (in words) (PRDM9 [2]): No activity
Compound: K4A: K4A mutant of H3-(1–25) peptide

- Kd (PRDM9 [5]): 18.6 µM
Compound: C[S+](CC[C@H](N)C(=O)[O-])C[C@H]1O[C@@H](n2cnc3c(N)ncnc32)[C@H](O)[C@@H]1O (stereo partly shown) [AdoMet, S-adenosylmethionine]

- PRDM9 methyltransferase activity with substrate (in words) (PRDM9 [2]): No activity
Compound: K4AK9A: K4AK9A mutant of H3-(1–25) peptide

- effect on PRDM9 activity (in words) (PRDM9 [1]; [6]): increase in enzyme activity
- concentration of maximal PRDM9 activity (reducing agent) (PRDM9 [1]; [7]): 10 mM
Compound: O[C@@H](CS)[C@@H](O)CS [DTT]
